In patent publication US10478446B2, “Compounds for use in polycystic kidney disease” (FONDAZIONE CENTRO SAN RAFFAELE OFFICE OF BIOTECHNOLOGY …, priority 2012, dated 2019):
Entries after “also recorded” stand apart in the source; their conditions may differ.

Key:
Pkd1^flox/−:Ksp-Cre mice = assay: 2DG treatment of mice with cystic kidneys; format: in vivo, mouse
Description: For proliferation assays immunostaining was carried our using an anti-Ki67 antibody followed by analysis. For cells, fluorescence was measured on triplicates of 300 cells using the microscope Axioplot (Zeiss). For kidney sections, pictures at 20× were taken using the camera Axio MRc5 (Zeiss) with the microscope Axioplan 2 (Zeiss), positive cells were counted on 6 sections for each group for each experiment using the ImageJ software.
(§1) Generation of Pkd1^flox/−:Ksp-Cre mice was previously described. Briefly, we crossed Pkd1^flox/flox29 and Pkd1^+/−: Ksp-Cre mice in pure C57/B16 genetic background. For treatments 2DG (Sigma-Aldrich) or vehicle (NaCl) were injected subcutaneously daily from P6 until P8 at 500 mg/kg.
(§2) 2DG (Sigma-Aldrich) or vehicle (NaCl) were injected subcutaneously daily from P6 until P8 at 500 mg/kg.
(§3) After sacrifice, kidneys were removed, washed in phosphate-buffered saline (PBS), weighed and fixed in 4% Para formaldehyde (PFA). After incubation in a sucrose in PBS gradient scale from 10% to 30% samples were incubated in 10% glycerol (Sigma) in a mixture of OCT (BIO-OPTICA) and sucrose 30%, finally embedded in OCT. Criostat sections were air-dried 1 h, rehydrated in PBS, incubated in Harris Hematoxylin 1:10 (Sigma Aldrich) for 2 min, washed, incubated in Eosin G (BIO-OPTICA) for 7 min, washed dehydrated and mounted in DEPEX (Sigma).
For Immunohistochemistry 10 μm cryosections were washed in Tween-0.1% in PBS (like all washes), fixed in PAF4%, permeabilized in Triton 0.1% in PBS, incubated in hydrogen peroxide 0.3% for 30 min, blocked for 1 h at room temperature with 5% Normal Goat Serum (Sigma Aldrich) 3% bovine serum albumin (BSA, Sigma) in phosphate-buffered saline, incubated O/N at 4° C. with the Antibody (ab) in blocking buffer diluted at 1:500. Sections were then incubated with the Dako EnVision+System-HRP (Dako). Staining is completed by an incubation with 3,3′ diaminobenzidine tetrahydrochloride (DAB) DAB+Substrate Chromogen System (DakoCytomation) and counterstained with Harris Hematoxylin (Sigma Aldrich). diluted 1/10 for 3 min.
A grid of squares 13.625 μm large was applied to sections of kidneys stained with Hematoxylin-Eosin. Each cross is marked with a dot, number of dots inside the lumen are counted on three litters (218 000 μm^2 for each). The degree of dilatation is determined according to Lu et al., 1999 ^32:1 dot: normal tubules; 2 dots: dilatated tubules; 3-9 dots: Small cysts; ≥10 dots: Cysts.

[1] = tested on: wt mice (ksp-cre: Pkd1^+/flox); assay: 2DG treatment of wt mice; format: in vivo, mouse; details: 2DG 500 mg/kg daily P6 to P8
Description: as §1, §2, §3

Pkd1^−/− MEFs [2] = assay: Western blot of signalling phosphoproteins (pAMPK, pERK, pS6RP, pLKB1); format: cell-based, mouse
Description: (§5) Antibodies anti-p-Akt 5473, anti-p-AMPK-Thr172; anti-AMPK, anti-p-S6RP Ser 235/236; anti-S6Rp; anti-p-ERK T202/Y204 and anti-ERK antibodies were from Cell Signaling Technology and used at 1:1000; anti-LC3 NB100 was from Novus Biologicals; anti-actin and anti-tubulin antibodies were from Sigma Aldrich and used at 1:5000. Anti-ki67 was from Novocastra and was used at 1:400. UO126 and rapamycin (Cell Signaling Technologies) were employed at final concentrations of 30 μM and 20 or 50 nM, respectively. AICAR and Metfomin (Sigma Aldrich) were used at the final concentration of 2 mM, oligomycin (Sigma Aldrich) was used at the final concentration of 30 μg/ml.
For western blot analysis, the cells were lysed [lysis buffer: 250 mM sucrose, 20 mM imidazole and 1 mM EDTA, pH 7.4, 0.5% Triton-X 100, supplemented with Protease Inhibitors Cocktail (Amersham) and phosphatase inhibitors (1 mM final of glycerophosphate, sodium orthovanadate and sodium fluoride)]. Total lysates were quantified and Laemmli buffer was added to reach a 1× final concentration. Proteins were resolved in a SDS-PAGE gel and transferred onto PVDF membranes. Next, 5% milk in TBS-T was used for blocking and for secondary antibody incubations, while 2% BSA in TBS-T was used for incubations with primary antibodies. HRP-conjugated secondary antibodies (from Roche) were visualized using the ECL System (Amersham), which were mixed with Super-Femto ECL System from Pierce when necessary.

Pkd1^+/+ MEFs [3] = details: UO126
Description: as §5
For western blot analysis, the cells were lysed [lysis buffer: 250 mM sucrose, 20 mM imidazole and 1 mM EDTA, pH 7.4, 0.5% Triton-X 100, supplemented with Protease Inhibitors Cocktail (Amersham) and phosphatase inhibitors (1 mM final of glycerophosphate, sodium orthovanadate and sodium fluoride)]. Total lysates were quantified and Laemmli buffer was added to reach a 1× final concentration. Proteins were resolved in a SDS-PAGE gel and transferred onto PVDF membranes. Next, 5% milk in TBS-T was used for blocking and for secondary antibody incubations, while 2% BSA in TBS-T was used for incubations with primary antibodies. […]

PKD mouse model = details: Takiar et al. 2011; cited from earlier work
Pkd1^+/+ MEFs [4] = assay: ATP content of MEFs after oligomycin; format: cell-based, mouse; details: oligomycin for 5 h, before treatment 102891+/−1042 RLU
Description: For ATP content evaluation, whole-cell extracts of control and treated MEFs cells were prepared by suspending pellets in lysis buffer as described in Distefano et al, 2009. […] Medium of control and treated MEFs was taken after 24 h at 100% of confluence. The concentration of lactate using EnzyChrom™ L-lactate Assay Kit (BioAssay Systems) and quantified on the final number of cells.

Pkd1^+/+ MEFs [5] = assay: Autophagosomes per cell by electron microscopy; format: cell-based, mouse; details: rapamycin 50 nM
Description: (§4) Cell culture monolayers were fixed for 15 min at 4° C. with PAF 4% and 2.5% glutaraldehyde in 125 mM cacodylate buffer. The monolayers were detached by rubber and centrifuged at high speed. The pellet was post-fixed (1 hour) with 2% OsO4 in 125 mM cacodylate buffer, was washed, dehydrated and embedded in Epon. Conventional thin sections were collect on uncoated grids, stained with uranil and lead citrate and examined in a Leo912 electron microscope.

Pkd1^−/− MEFs [6] = assay: Autophagosomes per cell by electron microscopy / autophagy; format: cell-based, mouse; details: rapamycin 50 nM
Description: as §4

[7] = 2DG 500 mg/kg daily P6 to P8, genotype not stated
[8] = 2DG 500 mg/kg daily P6 to P8, treated vs untreated mutant kidneys
[9] = cystic kidneys treated with 2DG

For `O=CC[C@@H](O)[C@H](O)[C@H](O)CO` [2DG, 2-deoxyglucose], the “proliferation index in the cystic kidneys (Ki67 assay)” value (Pkd1^flox/−:Ksp-Cre mice; 2DG 500 mg/kg daily P6 to P8, vs vehicle (NaCl)) was “decreased; also recorded: reduced”, the “proliferation rates in the cyst lining epithelium (Ki67)” value (Pkd1^flox/−:Ksp-Cre mice; 2DG 500 mg/kg daily P6 to P8, NaCl 28.48+/−5.39%) was 10.53+/−4.38% and the “brain weight normalized by body weight” value (Pkd1^flox/−:Ksp-Cre mice; [7]) was “did not showed effect; also recorded: do not change”. For the same compound, the “liver weight normalized by body weight” value (Pkd1^flox/−:Ksp-Cre mice; [7]) was “did not showed effect; also recorded: do not change”, the body weight (Pkd1^flox/−:Ksp-Cre mice; 2DG 500 mg/kg daily P6 to P8, mutant mice) was “did not alter; also recorded: do not change” and the “number of normal and dilated tubules (cystic index)” value (Pkd1^flox/−:Ksp-Cre mice; [8]) was “slightly reduced”. For the same compound, the “number of small cysts (cystic index)” value (Pkd1^flox/−:Ksp-Cre mice; [8]) was “significantly reduced”, the “ratio of kidney weight on body weight” value (Pkd1^flox/−:Ksp-Cre mice; 2DG 500 mg/kg daily subcutaneously P6 to P8, mutant mice, vs vehicle (NaCl)) was “effect of the treatment with the 2DG only on mutant animals; also recorded: significantly reduced” and the “number of cysts (cystic index)” value (Pkd1^flox/−:Ksp-Cre mice; [9]) was “significant decrease”. The “number of normal tubules (cystic index)” value (Pkd1^flox/−:Ksp-Cre mice; [9]) was “increased”, the body weight [1] was “did not alter” and the kidney weight [1] was “did not affect”.
In the case of `NC(=O)c1ncn([C@@H]2O[C@H](CO)[C@@H](O)[C@H]2O)c1N` [AICAR, 5-aminoimidazole-4-carboxamide ribonucleoside], the pAMPK levels (Pkd1^−/− MEFs [2]; AICAR (1 mM)) is reported as “restored; also recorded: increased” and the pERK (Pkd1^−/− MEFs [2]; AICAR (1 mM)) is reported as “restored to baseline levels; also recorded: inhibited”.
For `N#CC(=C(/N)Sc1ccccc1N)/C(C#N)=C(/N)Sc1ccccc1N` [UO126], the pAMPK (Pkd1^−/− MEFs [2]; 30 μM UO126 for 12 h) was “enhances”, the pERK (Pkd1^−/− MEFs [2]; 30 μM UO126 for 12 h) was “restores normal” and the pS6RP (Pkd1^−/− MEFs [2]; 30 μM UO126 for 12 h) was “restores normal”. For the same compound, the “pLKB1 levels (LKB1 phosphorylation at 5428)” value (Pkd1^−/− MEFs [2]; UO126, Pkd1^−/− MEFs) was “reduced” and the “pLKB1 levels (LKB1 phosphorylation at 5428)” value (Pkd1^+/+ MEFs [3]) was “reduced”.
In the case of `CN(C)C(=N)N=C(N)N` [metformin], the pAMPK levels (Pkd1^−/− MEFs [2]; metformin (2 mM)) is listed as “restored; also recorded: increased”, the pERK (Pkd1^−/− MEFs [2]; metformin (2 mM)) is listed as “restored to baseline levels; also recorded: inhibited” and the cyst expansion (PKD mouse model) is listed as “effectively reduce”.
In the case of `CC[C@H]1/C=C/C=C/C[C@@H](C)[C@H](O)[C@@](C)(O)C(=O)[C@@H](C)[C@H](O)[C@@H](C)C(=O)[C@@H](C)[C@H](O)[C@@H](C)/C=C/C(=O)O[C@@H]2[C@H](C)[C@H](CC1)O[C@]1(CC[C@H](C)[C@H](C[C@@H](C)O)O1)[C@H]2C` [oligomycin], the ATP content (Pkd1^+/+ MEFs [4]) is reported as “decreased”.
In the case of `CO[C@H]1C[C@@H]2CC[C@@H](C)[C@@](O)(O2)C(=O)C(=O)N2CCCC[C@H]2C(=O)O[C@H]([C@H](C)C[C@@H]2CC[C@@H](O)[C@H](OC)C2)CC(=O)[C@H](C)/C=C(\C)[C@@H](O)[C@@H](OC)C(=O)[C@H](C)C[C@H](C)/C=C/C=C/C=C/1C` [rapamycin], the “number of autophagosomes per cells evaluated by EM” value (Pkd1^+/+ MEFs [5]) is reported as 2.87+/−0.55 a.u and the “number of autophagosomes per cells evaluated by EM” value (Pkd1^−/− MEFs [6]) is reported as 0.96+/−0.18 a.u.
